Data as given in patent US20250257051A1, “SUBSTITUTED PYRIMIDINE COMPOUNDS AS TYK2 INHIBITORS” (1910 Genetics Inc., priority 2022, published 2025).
Structures can show the parent of a compound that is named as a salt.

Biological target: human TYK2 (JH2domain-pseudokinase) (Homo sapiens (Human), UniProt P29597)
Test: TYK2 JH2 Domain Binding Assay (KINOMEscan competition binding)
Details: KINOMEscan; 11-point 3-fold dilution, top concentration 30,000 nM; Kd measurements in duplicate; read-out: TYK JH2 (Kd)
In short: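 Competition binding of HEK293-expressed, DNA-tagged TYK2 JH2 (G556–D888)-NFkB fusion in crude extract against immobilized ligand, 1 h at room temperature, 0.9% DMSO. Bead-bound kinase quantified by qPCR; Kd from 11-point 3-fold series (top 30,000 nM), duplicate, Hill fit with slope −1.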

Sequence of human TYK2 (JH2domain-pseudokinase) (P29597 556-888): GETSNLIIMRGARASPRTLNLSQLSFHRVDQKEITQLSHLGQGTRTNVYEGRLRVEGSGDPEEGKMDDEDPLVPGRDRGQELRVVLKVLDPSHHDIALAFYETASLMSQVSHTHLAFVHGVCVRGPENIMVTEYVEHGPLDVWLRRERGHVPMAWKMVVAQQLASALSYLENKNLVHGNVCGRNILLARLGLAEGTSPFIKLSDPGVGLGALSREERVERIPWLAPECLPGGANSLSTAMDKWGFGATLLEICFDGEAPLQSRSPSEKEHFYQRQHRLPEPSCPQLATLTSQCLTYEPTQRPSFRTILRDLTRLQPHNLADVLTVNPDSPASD

| SMILES | Kd |
| --- | --- |
| CNC(=O)c1cnc(N2CCC(C(=O)NC)C2)nc1NC(=O)c1n[nH]c2c(OC)cccc12 (centres unmarked) [Compound 56, 7-methoxy-N-(5-(methylcarbamoyl)-2-(3-(methylcarbamoyl)pyrrolidin-1-yl)pyrimidin-4-yl)-1H-indazole-3-carboxamide] | 11000 nM |
| COc1c(Nc2nc(N3CCNCC3C)ncc2C(N)=O)cccc1-c1ncc(F)cn1 (centres unmarked) [Compound 57, 4-((3-(5-fluoropyrimidin-2-yl)-2-methoxyphenyl)amino)-2-(2-methylpiperazin-1-yl)pyrimidine-5-carboxamide] | 49 nM |
| COc1ccccc1Nc1nc(N2CCCN(C(C)=O)CC2)ncc1C(N)=O [Compound 58, 2-(4-acetyl-1,4-diazepan-1-yl)-4-((2-methoxyphenyl)amino)pyrimidine-5-carboxamide] | 1800 nM |
| COc1ccccc1Nc1nc(N2CCN(C(C)=O)CC2C)ncc1C(N)=O (centres unmarked) [Compound 59, 2-(4-acetyl-2-methylpiperazin-1-yl)-4-((2-methoxyphenyl)amino)pyrimidine-5-carboxamide] | 270 nM |
| COc1c(Nc2nc(N3CCN(C(C)=O)CC3C)ncc2C(N)=O)cccc1-c1ncc(F)cn1 (centres unmarked) [Compound 60, 2-(4-acetyl-2-methylpiperazin-1-yl)-4-((3-(5-fluoropyrimidin-2-yl)-2-methoxyphenyl)amino)pyrimidine-5-carboxamide] | 2 nM |
| CNC(=O)c1cnc(N2CCN(C(C)=O)CC2C)nc1Nc1cccc(-c2ncc(F)cn2)c1OC (centres unmarked) [Compound 61, 2-(4-acetyl-2-methylpiperazin-1-yl)-4-((3-(5-fluoropyrimidin-2-yl)-2-methoxyphenyl)amino)-N-methylpyrimidine-5-carboxamide] | 15 nM |
| CC(=O)N1CCCN(c2ncc(C(N)=O)c(Nc3ccc(C4CC4)nc3)n2)CC1 [Compound 64, 2-(4-acetyl-1,4-diazepan-1-yl)-4-((6-cyclopropylpyridin-3-yl)amino)pyrimidine-5-carboxamide] | 1400 nM |
| CNC(=O)c1cnc(N2CCCN(C(=O)OC(C)(C)C)CC2)nc1Nc1ccccc1S(C)(=O)=O [Compound 66, Tert-Butyl 4-(S-(methylcarbamoyl)-4-((2-(methylsulfonyl)phenyl)amino)pyrimidin-2-yl)-1,4-diazepane-1-carboxylate] | 6300 nM |
| CNC(=O)c1cnc(N2CCCNCC2)nc1Nc1ccccc1S(C)(=O)=O [Compound 67, 2-(1,4-diazepan-1-yl)-N-methyl-4-((2-(methylsulfonyl)phenyl)amino)pyrimidine-5-carboxamide hydrochloride] | 3400 nM |
| CNC(=O)c1cnc(N2CCC(C(=O)O)CC2)nc1Nc1ccccc1S(C)(=O)=O [Compound 68, 1-(5-(methylcarbamoyl)-4-((2-(methylsulfonyl)phenyl)amino)pyrimidin-2-yl)piperidine-4-carboxylic Acid] | 160 nM |
| CNC(=O)c1cnc(N2CCNCC2C)nc1Nc1ccccc1S(C)(=O)=O (centres unmarked) [Compound 69, N-methyl-2-(2-methylpiperazin-1-yl)-4-((2-(methylsulfonyl)phenyl)amino)pyrimidine-5-carboxamide Hydrochloride] | 1800 nM |
| CNC(=O)c1cnc(N2CCN(C(C)=O)CC2C)nc1Nc1ccc(C2CC2)nc1 (centres unmarked) [Compound 70, 2-(4-acetyl-2-methylpiperazin-1-yl)-4-((6-cyclopropylpyridin-3-yl)amino)-N-methylpyrimidine-5-carboxamide] | 4000 nM |
| COc1c(Nc2nc(N3CCCN(C(=O)OC(C)(C)C)CC3)ncc2C(N)=O)cccc1-c1ncc(F)cn1 [Compound 71, tert-butyl 4-(S-carbamoyl-4-((3-(5-fluoropyrimidin-2-yl)-2-methoxyphenyl)amino)pyrimidin-2-yl)-1,4-diazepane-1-carboxylate] | 470 nM |
| CNC(=O)c1cnc(N2CCCN(C(=O)OC(C)(C)C)CC2)nc1Nc1cccc(-c2ncc(F)cn2)c1OC [Compound 72, Tert-Butyl 4-(4-((3-(5-fluoropyrimidin-2-yl)-2-methoxyphenyl)amino)-5-(methylcarbamoyl)pyrimidin-2-yl)-1,4-diazepane-1-carboxylate] | 4500 nM |
